Measured values reported in US10770169B2, “Method of providing a treatment to a subject based on a dynamic pathway map” (THE REGENTS OF THE UNIVERSITY OF CALIFORNIA, priority 2010, dated 2020).
Where two headings read alike, the source gives them in different places.

System: panel of 55 breast cancer cell lines
Experiment: Cell growth inhibition assay (Cell Titer Glo, 72 h, 9 doses; GI50, TGI, LC50)
Type: cell-based, human
Conditions: Homo sapiens, read-out: GI50 (converted)

CC(C)C[C@H](NC(=O)[C@H](Cc1ccccc1)NC(=O)c1cnccn1)B(O)O [Bortezomib]
GI50 (600MPE cell line, censored GI50 values): 427 nM
GI50 (AU565, AU565 cell line, censored GI50 values): 5.25 nM
GI50 (AU565, cell line AU565): 5.25 nM
GI50 (BT-20, BT20 cell line, censored GI50 values): 46.8 nM
GI50 (BT-20, cell line BT20): 46.8 nM
GI50 (BT-474, BT474 cell line, censored GI50 values): 7.41 nM
GI50 (BT-474, cell line BT474): 7.41 nM
GI50 (BT-483, BT483 cell line, censored GI50 values): 19.5 nM
GI50 (BT-483, cell line BT483): 19.5 nM
GI50 (BT-549, BT549 cell line, censored GI50 values): 6.03 nM
GI50 (BT-549, cell line BT549): 6.03 nM
GI50 (CAMA-1, CAMA1 cell line, censored GI50 values): 16.6 nM
GI50 (CAMA-1, cell line CAMA1): 16.6 nM
GI50 (HCC38, HCC38 cell line, censored GI50 values): 11 nM
GI50 (HCC38, cell line HCC38): 11 nM
GI50 (HCC70, HCC70 cell line, censored GI50 values): 1.78 nM
GI50 (HCC70, cell line HCC70): 1.78 nM
GI50 (HCC202, HCC202 cell line, censored GI50 values): 7.24 nM
GI50 (HCC202, cell line HCC202): 7.24 nM
GI50 (HCC1143, HCC1143 cell line, censored GI50 values): 8.51 nM
GI50 (HCC1143, cell line HCC1143): 8.51 nM
GI50 (HCC1187, HCC1187 cell line, censored GI50 values): 3.39 nM
GI50 (HCC1187, cell line HCC1187): 3.39 nM
GI50 (HCC1395, HCC1395 cell line, censored GI50 values): 7.24 nM
GI50 (HCC1395, cell line HCC1395): 7.24 nM
GI50 (HCC1419, HCC1419 cell line, censored GI50 values): 4.37 nM
GI50 (HCC1419, cell line HCC1419): 4.37 nM
GI50 (HCC1428, HCC1428 cell line, censored GI50 values): 91.2 nM
GI50 (HCC1428, cell line HCC1428): 91.2 nM
GI50 (HCC1500, HCC1500 cell line, censored GI50 values): 12.3 nM
GI50 (HCC1500, cell line HCC1500): 12.3 nM
GI50 (HCC1806, HCC1806 cell line, censored GI50 values): 22.9 nM
GI50 (HCC1806, cell line HCC1806): 22.9 nM
GI50 (HCC1937, HCC1937 cell line, censored GI50 values): 7.59 nM
GI50 (HCC1937, cell line HCC1937): 7.59 nM
GI50 (HCC1954, HCC1954 cell line, censored GI50 values): 10 nM
GI50 (HCC1954, cell line HCC1954): 10 nM
GI50 (HCC2185 cell line, censored GI50 values): 4.47 nM
GI50 (HCC3153 cell line, censored GI50 values): 10.5 nM
GI50 (LY2 cell line, censored GI50 values): 603 nM
GI50 (MCF7, MCF7 cell line, censored GI50 values): 19.1 nM
GI50 (MCF7, cell line MCF7): 19.1 nM
GI50 (MDA-MB-134-VI, MDAMB134VI cell line, censored GI50 values): 8.32 nM
GI50 (MDA-MB-157, MDAMB157 cell line, censored GI50 values): 6.92 nM
GI50 (MDA-MB-157, cell line MDAMB157): 6.92 nM
GI50 (MDA-MB-175-VII, MDAMB175VII cell line, censored GI50 values): 5.25 nM
GI50 (MDA-MB-231, MDAMB231 cell line, censored GI50 values): 27.5 nM
GI50 (MDA-MB-231, cell line MDAMB231): 27.5 nM
GI50 (MDA-MB-361, MDAMB361 cell line, censored GI50 values): 6030 nM
GI50 (MDA-MB-361, cell line MDAMB361): 6030 nM
GI50 (MDA-MB-415, MDAMB415 cell line, censored GI50 values): 32.4 nM
GI50 (MDA-MB-415, cell line MDAMB415): 32.4 nM
GI50 (MDA-MB-436, MDAMB436 cell line, censored GI50 values): 8.71 nM
GI50 (MDA-MB-436, cell line MDAMB436): 8.71 nM
GI50 (MDA-MB-453, MDAMB453 cell line, censored GI50 values): 6.92 nM
GI50 (MDA-MB-453, cell line MDAMB453): 6.92 nM
GI50 (MDA-MB-468, MDAMB468 cell line, censored GI50 values): 14.1 nM
GI50 (MDA-MB-468, cell line MDAMB468): 14.1 nM
GI50 (SK-BR-3, SKBR3 cell line, censored GI50 values): 7.59 nM
GI50 (SK-BR-3, cell line SKBR3): 7.59 nM
GI50 (SUM52PE, SUM52PE cell line, censored GI50 values): 5.25 nM
GI50 (SUM52PE, cell line SUM52PE): 5.25 nM
GI50 (SUM149PT, SUM149PT cell line, censored GI50 values): 7.41 nM
GI50 (SUM149PT, cell line SUM149PT): 7.41 nM
GI50 (SUM185PE, SUM185PE cell line, censored GI50 values): 5.37 nM
GI50 (SUM185PE, cell line SUM185PE): 5.37 nM
GI50 (SUM225CWN, SUM225CWN cell line, censored GI50 values): 10.5 nM
GI50 (SUM225CWN, cell line SUM225CWN): 10.5 nM
GI50 (SUM1315MO2, SUM1315MO2 cell line, censored GI50 values): 13.8 nM
GI50 (SUM-159-PT, SUM159PT cell line, censored GI50 values): 7.41 nM
GI50 (SUM-159-PT, cell line SUM159PT): 7.41 nM
GI50 (T47D, T47D cell line, censored GI50 values): 8.32 nM
GI50 (T47D, cell line T47D): 8.32 nM
GI50 (UACC-812, UACC812 cell line, censored GI50 values): 24 nM
GI50 (UACC-812, cell line UACC812): 24 nM
GI50 (UACC-893, UACC893 cell line, censored GI50 values): 0.646 nM
GI50 (UACC-893, cell line UACC893): 0.646 nM
GI50 (ZR-75-1, ZR751 cell line, censored GI50 values): 17.4 nM
GI50 (ZR-75-1, cell line ZR751): 17.4 nM
GI50 (ZR-75B, ZR75B cell line, censored GI50 values): 132 nM
GI50 (ZR-75B, cell line ZR75B): 132 nM
GI50 (cell line 600MPE): 427 nM
GI50 (cell line HCC2185): 4.47 nM
GI50 (cell line HCC3153): 10.5 nM
GI50 (cell line LY2): 603 nM
GI50 (cell line MDAMB134V): 8.32 nM
GI50 (cell line MDAMB175V): 5.25 nM
GI50 (cell line SUM1315MO): 13.8 nM
